In one series the test system is MV411 cells xenograft. Briefly: AML xenograft model, combination with Ara-C. Type of series: in vivo, CB17 SCID mice. The following applies: AML mice xenograft. The protocol: CB17 SCID mice were inoculated with MV411 cells at the density of 5×10^6 suspended in PBS and matrigel (1:1). The mice were randomized based on tumor volume into 6 different groups after the tumor reached ˜200 to 500 mm^3. The mice were treated either with vehicle, NU031, NU975 alone or in combination with cytarabine (Ara-C). […] (See FIG. 17).

The nature of series [1]: Potency code of Table 2 (assay not stated).
The subject of the next series is DNA damage (rH2AX). As to the kind of experiment: rH2AX staining assay for DNA damage. Type of series: cell-based. The protocol: Min9 (NUCC-0176234) was also tested for its ability to cause DNA damage in an rH2AX staining assay. We would not expect cMYC-targeting agents to produce significant DNA damage. Compounds that act directly against DNA such as doxorubicin do however. […] (See FIG. 6).

Series [2] deals with cMYC wild-type (WT) and cMYC KO line. Briefly: Cell viability assay, cMYC wild-type line versus cMYC KO line. Type of series: cell-based. The protocol: Min9 (NUCC-0176234) was also tested in a cell viability assay against a cMYC wild-type (WT) and a cMYC KO line.
For the next series, the target named is MYC/Max binding to DNA (Homo sapiens, UniProt P01106). As to the kind of experiment: Electrophoretic mobility shift assay (EMSA) of MYC/Max binding to DNA. The protocol:
We also tested our best hit compound Min9 (NUCC-0176234) and newly synthesized analogs for effects of these compounds on MYC/Max binding to DNA in electrophoretic mobility shift assays (EMSAs). (See FIG. 5a and FIG. 5b). We expected the active compounds to impair MYC/Max binding to DNA. Several structural analogs of Min9 were tested over multiple doses for inhibiting MYC-DNA binding and we observed a dose-dependent inhibition. (See FIG. 5c).

A short description of series [3]: Pharmacokinetics in mice after IV dosing. Type of series: in vivo. The following applies: 5 mg/kg intravenously. The protocol:
The pharmacokinetics of NUCC-176242 and NUCC-176248 were studied in mice by administering a dose of 5 mg/kg intravenously and measuring the plasma concentration versus time. (See FIG. 10).
The pharmacokinetics of NUCC-176242 and NUCC-176248 were studied in mice by administering a dose of 5 mg/kg intravenously and measuring the plasma concentration versus time.

A short description of series [4]: In vitro metabolism with mouse S9 fraction. Type of series: in vitro ADME. The protocol:
In vitro metabolism of NUCC-176242 and NUCC-176248 were tested using mouse liver microsomes and a mouse S9 fraction. (See FIG. 9).
In vitro metabolism of NUCC-176242 and NUCC-176248 were tested using mouse liver microsomes and a mouse S9 fraction.

For series [5], the system named is MYC WT and MYC KO rat fibroblasts. Briefly: Growth inhibition of wild type and MYC knockout rat fibroblasts. Type of series: cell-based. An excerpt:
We tested the top 13 active compounds in the first screen assay. […] More than half of the tested compounds show better growth inhibitory effect on MYC WT compared to MYC KO cells.

The subject of a further series is PC12 cells. Briefly: Cell viability / proliferation of PC12 cells (MTS). Type of series: cell-based. The protocol:
(§1) PC3 prostate cancer cell line with high Myc level and PC12 pheochromocytoma tumor cell line with non functional Max protein, which is not dependent on Myc-Max complex, were phased from ATCC. Cells were plated in 96 well plate at 1000 cells per well, and Myc inhibitor 361 at various concentrations was added to the cells next day. After 3 days of treatment, fresh medium with 361 were added again, and cell viability was measured by MTS assay at day 5 after the treatment. (See FIG. 11).

A further series relates to MycCap cells. As to the kind of experiment: Cell viability of MycCap cells. Type of series: cell-based.
Series [6] concerns PC3 prostate cancer cell line. Briefly: Proliferation assay of PC3 cells (MTS). The following applies: Myc dependent cell line. Type of series: cell-based. The protocol: as §1
Series [7] has as its system MycCap tumor. Briefly: MycCap FVB allograft model, combination with anti-PD-1 immunotherapy. Type of series: in vivo, FVB mice. The following applies: combination with anti-PD-1 antibody. The protocol:
MycCap FVB allograft model was treated with 361 (50 mg/kg) for two days, following by two days of anti-PD-1 antibody (100 ug/day), and kept this 4-day treatment cycle for 4 cycles. (See FIG. 16).

The subject of series [8] is MycCap tumor. Briefly: MycCap FVB allograft model. Type of series: in vivo, FVB mice. The following applies: mouse prostate cancer allograft, intra-peritoneally. The protocol: FVB mice were inoculated with 1×10^6 of MycCap cells in 100 ul of matrigel subcutaneously on both flanks of the mice. When tumor size reached average size of 150 mm^3, mice were randomized based on tumor volume to 2 groups. Mice were administered with 50 mg/kg of 361 or vehicle(Veh) twice daily intra-peritoneally for two days. The treatment was suspended for 10 day, and initiated the treatment with a lower dose […] daily for another 9 days. Tumor size was measured twice a week during the experiment. (See FIG. 15).

Series [9] deals with MYC transcriptional activity (c-Myc E-box-luciferase reporter, MycCap cells). As to the kind of experiment: MYC E-box luciferase reporter assay. Type of series: cell-based. The following applies: 4 hours of treatment. In short, it runs like this:
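MycCap cells stably carrying c-Myc E-box-luciferase reporter, with CMV-luciferase MycCap-luc as counterpart, seeded 10000 cells/well and treated next day with serial compound dilutions. Luminescence read at 4 h immediately after adding 150 μg/ml luciferin.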
Background: A reporter such as luciferase makes a cellular process visible.

Each structure is given as a SMILES string. Where two headings read alike, the source gives them in different places.

Chain of MYC/Max binding to DNA (P01106 whole entry): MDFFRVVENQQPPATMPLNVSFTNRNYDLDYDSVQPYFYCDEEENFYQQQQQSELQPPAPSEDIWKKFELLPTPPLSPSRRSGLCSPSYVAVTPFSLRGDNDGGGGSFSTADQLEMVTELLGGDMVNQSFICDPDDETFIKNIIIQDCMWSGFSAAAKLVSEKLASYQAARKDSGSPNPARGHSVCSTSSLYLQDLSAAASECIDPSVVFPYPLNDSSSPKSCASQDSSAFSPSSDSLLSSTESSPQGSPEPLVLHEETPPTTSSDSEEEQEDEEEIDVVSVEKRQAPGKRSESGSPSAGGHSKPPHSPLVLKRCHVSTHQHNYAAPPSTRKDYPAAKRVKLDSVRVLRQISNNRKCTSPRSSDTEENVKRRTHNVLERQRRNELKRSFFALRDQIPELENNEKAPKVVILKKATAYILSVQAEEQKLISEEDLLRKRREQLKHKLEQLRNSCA

Turning to `CCCCOc1ccc(-c2cc(C(F)(F)F)n[nH]2)c(O)c1-c1cc(C(F)(F)F)cc(C(F)(F)F)c1` [NU031], the “anti-tumor effect in combination with Ara-C” value in the series with MV411 cells xenograft is listed as “significant difference compared to control group”.
On the same count and under the same terms, to `Cn1nc(C(F)(F)F)cc1-c1ccc(OCc2ccc(Cl)cc2)c(-c2ccc(Cl)c(C(F)(F)F)c2)c1O` [NU975] belongs “significant difference compared to control group”.
On to `CCc1ccc(Oc2c[nH]nc2-c2ccc(OCc3cnn(-c4ccccc4)c3)cc2O)cc1` [NUCC-0176234], for which the Potency code entry in series [1] is given as “+ (>40 +)”. In addition, in the series with DNA damage (rH2AX), the DNA damage result is recorded as “essentially no DNA damage”. In series [2], the “cell viability, WT line versus KO cells” value is listed as “reduces cell viability much more in the WT line than the KO cells”. Besides, at MYC/Max binding to DNA (in words), the “inhibition of MYC/Max (c-MYC) binding to DNA” value is listed as “prevent c-MYC/DNA binding”.
On to `CCc1ccc(Oc2c(-c3ccc(OCc4ccc(Cl)cc4)cc3O)n[nH]c2C(F)(F)F)cc1` [NUCC-0176242], for which the “in vivo metabolism (plasma concentration versus time)” value in series [3] is recorded as “correlated well with the observed in vitro metabolism”. Also, in series [4], the “metabolism by mouse S9 fraction” value was “significantly metabolism by the mouse S9 fraction versus NUCC-176248”. For the same molecule, the Potency code entry in [1] is on record as “++ (30-40 ++)”.
Turning to `CCc1ccc(Oc2c(-c3ccc(OCc4ccc(Cl)cc4)cc3O)nn(C)c2C(F)(F)F)cc1` [NUCC-0176248], in series [3], the “in vivo metabolism (plasma concentration versus time)” value is listed as “correlated well with the observed in vitro metabolism”. For the same molecule, the Potency code entry in series [1] is “+ (>40 +)”. In series [5], the “selectivity of growth inhibition, MYC WT versus MYC KO” value is given as “high specificity”.
Consider `CCc1ccc(Oc2c(-c3ccc(OCc4ccncc4)cc3O)n[nH]c2C(F)(F)F)cc1` [NUCC-0176250], for which the Potency code result in series [1] is “+ (>40 +)”. The “selectivity of growth inhibition, MYC WT versus MYC KO” value in [5] was “great selectivity”.
For orientation: IC50 means the concentration that inhibits the measured activity by half. As for `CCc1ccc(Oc2c(-c3ccc(OCc4cccc(Cl)c4)cc3O)n[nH]c2C(F)(F)F)cc1` [NUCC-0196295], the Potency code result in [1] is listed as “+++ (10-30 +++)”. Further, at MYC/Max binding to DNA, the IC50 was 66.8 µM.
With `CC(C)CCOc1ccc(-c2cc(C(F)(F)F)n[nH]2)c(O)c1-c1cc(C(F)(F)F)cc(C(F)(F)F)c1` [NUCC-0201198], the Potency code result in series [1] is recorded as “+++ (10-30 +++)”. For the same molecule, the IC50 was determined as 8.2 µM in the series with PC12 cells (Rattus norvegicus, PC-12) and 2.6 µM in the series with MycCap cells (Mus musculus, Myc-CaP).
Regarding `O=C1CCC(N2C(=O)c3cccc(OCc4cn(CCOCCOCCOCC(=O)Nc5ccc(COc6ccc(-c7cc(C(F)(F)F)n[nH]7)c(O)c6-c6cc(C(F)(F)F)cc(C(F)(F)F)c6)cc5)nn4)c3C2=O)C(=O)N1` (centres unmarked) [NUCC-0201202], the Potency code result in [1] is “+++ (10-30 +++)”. Further, the results for the IC50 in the series on PC12 cells and in the series on MycCap cells were 23.1 µM and 4 µM, respectively.
Regarding `O=C1CCC(N2C(=O)c3cccc(OCc4cn(CCOCCOCCOCCOCC(=O)Nc5ccc(COc6ccc(-c7cc(C(F)(F)F)n[nH]7)c(O)c6-c6cc(C(F)(F)F)cc(C(F)(F)F)c6)cc5)nn4)c3C2=O)C(=O)N1` (centres unmarked) [NUCC-0201203], the Potency code entry in series [1] is “++ (30-40 ++)”. The molecule further gave an IC50 in the series on MycCap cells of 32.4 µM.
In the case of `Cn1nc(C(F)(F)F)cc1-c1ccc(OCc2ccc(Cl)cc2)c(-c2cc(C(F)(F)F)cc(C(F)(F)F)c2)c1O` [compound 361], in [6], the “proliferation of PC3” value was “specifically inhibits proliferation”. The tumor progression entry in the series on MycCap tumor [7] is “significantly blocks tumor progression”. Besides, the tumor volume result in the series on MycCap tumor [8] is recorded as “reduces tumor volume”. Moreover, the c-Myc transcription activity entry in series [9] is given as “inhibits c-Myc transcription activity as an early event before affecting cell viability”.
As for `Cn1nc(C(F)(F)F)cc1-c1ccc(OCc2ccc(Cl)cc2)c(-c2ccc(Cl)c(C(F)(F)F)c2)c1O` [compound 975], the “anti-tumor effect in combination with Ara-C” value in the series with MV411 cells xenograft is reported as “significant synergic anti-tumor effect”.

The values above are taken from patent US20200392116A1, “SUBSTITUTED HETEROCYCLES AS c-MYC TARGETING AGENTS” (NORTHWESTERN UNIVERSITY, priority 2019, published 2020).
